In ChEMBL document CHEMBL1201862, “PubChem BioAssay data set” (2004):
Calls of active or inactive are those of the source.

Experiments:
Hexokinase HKDC1 = biological target: T1, Hexokinase HKDC1 (Homo sapiens, UniProt Q2TB90); assay: HKDC1 hexokinase activators, dose response, biochemical, W721R variant (AID 504730); assay type: functional
T1 sequence (Q2TB90 whole entry): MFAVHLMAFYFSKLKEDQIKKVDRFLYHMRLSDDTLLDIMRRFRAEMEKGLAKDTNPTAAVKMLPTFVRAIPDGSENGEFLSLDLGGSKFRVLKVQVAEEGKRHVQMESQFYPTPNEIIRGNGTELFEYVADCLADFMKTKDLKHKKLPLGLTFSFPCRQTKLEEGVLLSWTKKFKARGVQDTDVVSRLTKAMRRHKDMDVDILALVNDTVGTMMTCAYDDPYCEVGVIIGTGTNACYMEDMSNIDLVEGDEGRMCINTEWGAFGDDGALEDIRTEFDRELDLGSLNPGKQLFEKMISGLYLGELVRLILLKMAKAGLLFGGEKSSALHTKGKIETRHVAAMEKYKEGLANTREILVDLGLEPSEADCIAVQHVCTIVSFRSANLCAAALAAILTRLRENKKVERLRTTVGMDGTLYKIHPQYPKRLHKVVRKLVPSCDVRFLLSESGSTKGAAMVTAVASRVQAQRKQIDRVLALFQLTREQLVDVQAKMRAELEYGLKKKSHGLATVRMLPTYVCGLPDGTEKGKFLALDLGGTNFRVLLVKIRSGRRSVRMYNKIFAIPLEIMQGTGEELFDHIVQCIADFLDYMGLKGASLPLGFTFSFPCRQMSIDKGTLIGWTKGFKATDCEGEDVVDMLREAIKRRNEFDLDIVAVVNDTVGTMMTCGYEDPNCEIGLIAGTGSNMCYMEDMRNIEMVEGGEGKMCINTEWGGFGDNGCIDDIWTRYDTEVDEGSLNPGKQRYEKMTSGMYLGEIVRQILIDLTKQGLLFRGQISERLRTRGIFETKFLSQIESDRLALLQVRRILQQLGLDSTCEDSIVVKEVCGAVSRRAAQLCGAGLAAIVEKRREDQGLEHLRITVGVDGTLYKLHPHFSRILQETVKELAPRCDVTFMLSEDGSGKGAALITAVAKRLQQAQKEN

Hexokinase-1 = biological target: T2, Hexokinase-1 (Homo sapiens, UniProt P19367); assay: hexokinase 1 activators, dose response, selectivity assay for HKDC1 activator project, biochemical (AID 504762); assay type: functional
T2 sequence (P19367 whole entry): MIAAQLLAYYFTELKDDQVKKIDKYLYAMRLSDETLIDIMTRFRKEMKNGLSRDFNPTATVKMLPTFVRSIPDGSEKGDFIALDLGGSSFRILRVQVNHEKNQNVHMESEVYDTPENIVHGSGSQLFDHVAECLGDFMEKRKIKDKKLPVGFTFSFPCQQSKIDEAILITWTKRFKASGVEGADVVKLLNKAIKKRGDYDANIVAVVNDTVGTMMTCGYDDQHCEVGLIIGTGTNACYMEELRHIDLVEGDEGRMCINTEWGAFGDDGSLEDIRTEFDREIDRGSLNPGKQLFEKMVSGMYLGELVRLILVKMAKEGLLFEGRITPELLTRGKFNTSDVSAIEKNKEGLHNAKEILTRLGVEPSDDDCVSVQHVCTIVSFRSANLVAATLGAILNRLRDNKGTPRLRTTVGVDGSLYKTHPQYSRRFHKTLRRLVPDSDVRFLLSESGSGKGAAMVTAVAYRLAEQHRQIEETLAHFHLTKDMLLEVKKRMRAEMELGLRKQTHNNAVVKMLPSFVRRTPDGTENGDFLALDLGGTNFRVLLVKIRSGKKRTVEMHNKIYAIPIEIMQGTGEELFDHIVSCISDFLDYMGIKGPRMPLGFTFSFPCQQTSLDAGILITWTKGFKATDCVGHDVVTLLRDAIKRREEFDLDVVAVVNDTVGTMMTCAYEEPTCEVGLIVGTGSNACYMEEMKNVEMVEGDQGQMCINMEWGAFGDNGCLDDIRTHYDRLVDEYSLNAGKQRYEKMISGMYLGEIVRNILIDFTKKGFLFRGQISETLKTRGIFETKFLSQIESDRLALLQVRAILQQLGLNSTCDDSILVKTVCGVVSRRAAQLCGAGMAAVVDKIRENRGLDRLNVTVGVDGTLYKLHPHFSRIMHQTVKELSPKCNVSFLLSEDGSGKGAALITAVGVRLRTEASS

[1] = biological target: Intestinal-type alkaline phosphatase (Mus musculus, UniProt P24822); assay: mouse intestinal alkaline phosphatase activators, dose response, biochemical, luminescence, uHTS hits (AID 488783); assay type: functional
Intestinal-type alkaline phosphatase (Mus musculus, UniProt P24822), sequence (P24822 whole entry): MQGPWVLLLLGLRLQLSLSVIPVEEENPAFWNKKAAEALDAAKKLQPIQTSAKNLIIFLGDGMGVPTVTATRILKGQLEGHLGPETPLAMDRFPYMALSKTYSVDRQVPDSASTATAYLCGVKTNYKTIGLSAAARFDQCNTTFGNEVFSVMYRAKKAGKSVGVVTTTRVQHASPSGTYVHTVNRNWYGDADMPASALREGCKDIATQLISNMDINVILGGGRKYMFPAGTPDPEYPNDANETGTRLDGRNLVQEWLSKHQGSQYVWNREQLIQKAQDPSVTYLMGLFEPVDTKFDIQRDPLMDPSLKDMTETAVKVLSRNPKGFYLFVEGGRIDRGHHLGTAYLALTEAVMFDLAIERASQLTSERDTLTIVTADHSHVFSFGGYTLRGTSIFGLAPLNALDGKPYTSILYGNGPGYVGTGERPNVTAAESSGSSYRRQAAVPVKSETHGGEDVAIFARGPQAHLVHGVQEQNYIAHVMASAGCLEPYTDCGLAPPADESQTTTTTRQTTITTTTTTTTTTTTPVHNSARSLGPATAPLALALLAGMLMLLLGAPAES

[2] = biological target: 72 kDa type IV collagenase (Homo sapiens, UniProt P08253); assay: Dose Response validation of uHTS RPN11 inhibitor hits using a MMP-2 Fluorescence assay.; assay type: functional
72 kDa type IV collagenase, sequence (P08253 whole entry): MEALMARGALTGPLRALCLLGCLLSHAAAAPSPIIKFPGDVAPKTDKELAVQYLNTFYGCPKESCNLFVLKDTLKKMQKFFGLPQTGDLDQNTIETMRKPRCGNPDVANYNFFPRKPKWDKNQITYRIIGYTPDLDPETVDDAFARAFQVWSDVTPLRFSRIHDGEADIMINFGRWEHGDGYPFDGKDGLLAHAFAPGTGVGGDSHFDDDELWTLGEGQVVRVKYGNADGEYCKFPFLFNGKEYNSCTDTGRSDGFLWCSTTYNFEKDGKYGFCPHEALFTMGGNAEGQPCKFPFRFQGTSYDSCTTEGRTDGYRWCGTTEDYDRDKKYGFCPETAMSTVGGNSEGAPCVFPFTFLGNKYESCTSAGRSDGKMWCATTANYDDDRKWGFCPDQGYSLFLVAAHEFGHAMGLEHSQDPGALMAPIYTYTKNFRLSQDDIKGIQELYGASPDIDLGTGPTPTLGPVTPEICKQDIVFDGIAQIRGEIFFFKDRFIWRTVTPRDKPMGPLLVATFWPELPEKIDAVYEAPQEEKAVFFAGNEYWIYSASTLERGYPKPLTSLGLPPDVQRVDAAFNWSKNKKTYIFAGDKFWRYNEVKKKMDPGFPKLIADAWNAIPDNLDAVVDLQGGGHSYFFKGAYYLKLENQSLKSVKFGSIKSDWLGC

[3] = biological target: T3, Alkaline phosphatase, tissue-nonspecific isozyme (Homo sapiens, UniProt P05186); assay: TNAP enzyme activators, dose response, selectivity assay for mouse IAP activator project, biochemical, TNAP isozyme, mouse IAP uHTS hits (AID 488880); assay type: functional
T3 sequence (P05186 whole entry): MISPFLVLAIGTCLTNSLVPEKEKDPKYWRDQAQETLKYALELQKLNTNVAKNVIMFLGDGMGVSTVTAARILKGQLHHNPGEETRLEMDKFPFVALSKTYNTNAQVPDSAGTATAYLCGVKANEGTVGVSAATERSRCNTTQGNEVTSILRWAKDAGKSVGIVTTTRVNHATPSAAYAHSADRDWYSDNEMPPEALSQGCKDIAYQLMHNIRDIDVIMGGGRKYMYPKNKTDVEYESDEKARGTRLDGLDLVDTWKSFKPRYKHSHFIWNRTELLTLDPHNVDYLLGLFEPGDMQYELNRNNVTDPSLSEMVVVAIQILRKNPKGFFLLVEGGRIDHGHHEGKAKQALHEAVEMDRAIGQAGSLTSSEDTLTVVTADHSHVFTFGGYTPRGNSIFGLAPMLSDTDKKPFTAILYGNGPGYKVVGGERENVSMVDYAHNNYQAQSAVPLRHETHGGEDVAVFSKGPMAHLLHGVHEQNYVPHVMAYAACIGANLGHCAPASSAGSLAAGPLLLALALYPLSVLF

Prothrombin = Prothrombin (Bos taurus, UniProt P00735); assay: thrombin inhibition, dose response, biochemical, fluorescence polarization, uHTS hits (AID 602369); assay type: functional
[4] = biological target: 26S proteasome non-ATPase regulatory subunit 14 (Homo sapiens, UniProt O00487); assay: inhibition of proteasome subunit RPN11 – biochemical, fluorescence polarization, uHTS hits, confirmation (AID 602368); assay type: functional
26S proteasome non-ATPase regulatory subunit 14, sequence (O00487 whole entry): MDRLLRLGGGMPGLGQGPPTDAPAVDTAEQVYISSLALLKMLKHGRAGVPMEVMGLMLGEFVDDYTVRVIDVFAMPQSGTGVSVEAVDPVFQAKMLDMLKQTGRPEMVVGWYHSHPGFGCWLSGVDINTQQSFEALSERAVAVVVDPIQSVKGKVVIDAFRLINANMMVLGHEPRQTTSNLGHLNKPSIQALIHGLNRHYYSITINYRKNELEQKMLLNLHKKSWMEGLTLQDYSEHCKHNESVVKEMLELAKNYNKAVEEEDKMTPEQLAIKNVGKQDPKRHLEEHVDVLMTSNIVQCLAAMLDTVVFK

[5] = biological target: Intestinal-type alkaline phosphatase (Homo sapiens, UniProt P09923); assay: activation of human intestinal alkaline phosphatase – biochemical, dose response (AID 488873); assay type: functional
Intestinal-type alkaline phosphatase (Homo sapiens, UniProt P09923), sequence (P09923 whole entry): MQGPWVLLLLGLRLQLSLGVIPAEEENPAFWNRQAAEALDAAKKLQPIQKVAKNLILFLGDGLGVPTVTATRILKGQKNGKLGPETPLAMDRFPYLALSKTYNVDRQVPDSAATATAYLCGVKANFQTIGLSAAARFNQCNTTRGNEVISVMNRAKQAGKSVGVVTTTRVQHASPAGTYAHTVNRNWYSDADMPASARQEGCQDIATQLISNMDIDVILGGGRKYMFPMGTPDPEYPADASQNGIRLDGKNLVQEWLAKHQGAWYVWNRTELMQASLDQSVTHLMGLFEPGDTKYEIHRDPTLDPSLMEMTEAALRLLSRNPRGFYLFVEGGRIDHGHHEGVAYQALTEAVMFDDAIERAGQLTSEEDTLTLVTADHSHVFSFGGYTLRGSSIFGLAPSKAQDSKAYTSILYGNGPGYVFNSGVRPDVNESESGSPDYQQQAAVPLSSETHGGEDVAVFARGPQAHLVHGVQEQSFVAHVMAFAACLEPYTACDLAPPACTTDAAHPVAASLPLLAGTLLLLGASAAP

[6] = biological target: T4, Corticotropin-releasing factor receptor 2/Corticotropin-releasing factor-binding protein (Homo sapiens, UniProt P24387+Q13324); assay: activators of CRF receptor 2 with binding protein – uHTS hits, confirmation (AID 602473); assay type: functional; settings: read-out: EC50_Mean
T4 sequence (Q13324 whole entry): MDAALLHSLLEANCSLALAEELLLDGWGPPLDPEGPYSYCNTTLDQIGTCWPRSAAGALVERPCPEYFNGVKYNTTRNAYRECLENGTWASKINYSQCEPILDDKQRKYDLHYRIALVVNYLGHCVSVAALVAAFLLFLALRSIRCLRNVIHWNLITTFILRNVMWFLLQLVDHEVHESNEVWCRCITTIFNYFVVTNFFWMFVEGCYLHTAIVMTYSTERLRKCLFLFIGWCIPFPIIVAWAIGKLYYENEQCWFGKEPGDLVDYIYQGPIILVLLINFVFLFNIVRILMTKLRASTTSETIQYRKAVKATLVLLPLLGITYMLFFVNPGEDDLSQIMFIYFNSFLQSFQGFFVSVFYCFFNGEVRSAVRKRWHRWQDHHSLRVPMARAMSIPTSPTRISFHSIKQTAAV
T4 sequence (P24387 whole entry): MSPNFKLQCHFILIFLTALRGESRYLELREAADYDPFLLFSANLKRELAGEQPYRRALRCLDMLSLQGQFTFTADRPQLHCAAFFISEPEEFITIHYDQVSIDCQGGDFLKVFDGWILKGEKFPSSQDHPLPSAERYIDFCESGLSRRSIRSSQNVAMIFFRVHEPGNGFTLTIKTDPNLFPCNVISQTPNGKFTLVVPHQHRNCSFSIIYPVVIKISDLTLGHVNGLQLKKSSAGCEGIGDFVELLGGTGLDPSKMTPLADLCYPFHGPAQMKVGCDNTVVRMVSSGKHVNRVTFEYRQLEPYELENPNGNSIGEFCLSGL

[7] = biological target: T5, Short transient receptor potential channel 4 (Mus musculus, UniProt Q9QUQ5); assay: mouse TRPC4 channel activators, dose response, cell-based, HEK293 TRPC4/mu-opioid, Fluo-4 calcium (AID 434937); assay type: functional
T5 sequence (Q9QUQ5 whole entry): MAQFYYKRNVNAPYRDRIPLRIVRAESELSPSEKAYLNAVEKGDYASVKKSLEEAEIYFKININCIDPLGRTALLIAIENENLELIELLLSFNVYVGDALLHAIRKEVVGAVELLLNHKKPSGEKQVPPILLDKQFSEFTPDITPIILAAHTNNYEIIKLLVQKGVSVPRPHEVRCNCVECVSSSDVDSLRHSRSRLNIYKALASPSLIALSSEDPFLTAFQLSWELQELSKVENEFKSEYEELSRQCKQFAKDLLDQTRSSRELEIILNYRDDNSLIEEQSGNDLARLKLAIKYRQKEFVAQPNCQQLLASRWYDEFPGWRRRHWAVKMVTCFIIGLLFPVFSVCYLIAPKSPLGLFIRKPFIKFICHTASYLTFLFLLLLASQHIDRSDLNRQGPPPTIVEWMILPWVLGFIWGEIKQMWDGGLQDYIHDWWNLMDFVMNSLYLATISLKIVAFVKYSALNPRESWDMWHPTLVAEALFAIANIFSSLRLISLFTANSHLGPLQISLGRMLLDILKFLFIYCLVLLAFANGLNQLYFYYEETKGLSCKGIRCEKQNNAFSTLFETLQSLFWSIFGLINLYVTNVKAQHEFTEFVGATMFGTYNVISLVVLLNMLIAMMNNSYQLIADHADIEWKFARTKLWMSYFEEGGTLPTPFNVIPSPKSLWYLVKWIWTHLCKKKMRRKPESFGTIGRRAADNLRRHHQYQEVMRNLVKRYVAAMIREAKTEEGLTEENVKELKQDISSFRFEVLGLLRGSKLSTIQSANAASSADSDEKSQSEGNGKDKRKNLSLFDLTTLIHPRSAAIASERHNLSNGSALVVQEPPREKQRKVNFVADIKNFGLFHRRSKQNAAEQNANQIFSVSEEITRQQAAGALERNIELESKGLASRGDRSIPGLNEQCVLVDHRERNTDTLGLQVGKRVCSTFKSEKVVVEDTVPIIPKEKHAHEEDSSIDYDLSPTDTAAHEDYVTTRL

cells [8] = assay type: functional, cell-based
HEK293 = assay: inhibitors of LMP1-driven NF-kB reporter, dose response, cell-based, HEK293, luciferase, cherry-pick (AID 588343); assay type: functional; settings: Homo sapiens
cells [9] = assay type: functional, cell-based; remark: listed apart in the source
[10] = test system: Streptococcus sp. 'group A'; assay: growth inhibition of control SK(-) GAS strain, dose response, counter-screen for streptokinase expression inhibitor project, luminescence, kanamycin, BacTiterGlo, confirmation (AID 1900); assay type: functional, organism-based
[11] = THP-1 cell cytotoxicity, dose response, cytotoxicity control for non-replicating M. tuberculosis project (AID 489025); assay type: functional
[12] = Luminescence-based counterscreen assay for KLF5 inhibitors: dose response cell-based high throughput screening assay to identify cytotoxic compounds using the IEC-6 intestinal epithelial cell line. [Related pubchem assays: 1700 (Primary screen.), 1834 (Confirmation screen.), 1858 (Summary AID.), 1905 (Counterscreen.)]; assay type: functional
[13] = HepG2 cell cytotoxicity, dose response, cytotoxicity control for non-replicating M. tuberculosis project (AID 489018); assay type: functional; settings: Mycobacterium tuberculosis
Exodeoxyribonuclease V = Exodeoxyribonuclease V (Escherichia coli (strain K12), UniProt P04993+P07648+P08394); assay: E. coli RecBCD inhibitors, dose response, counter-screen for AddAB inhibitor project, absorbance, V66 E. coli, mutant T4 phage (AID 492957); assay type: functional, cell-based, Escherichia coli str. K-12 substr. MG1655
Exodeoxyribonuclease V, sequence (P04993 whole entry): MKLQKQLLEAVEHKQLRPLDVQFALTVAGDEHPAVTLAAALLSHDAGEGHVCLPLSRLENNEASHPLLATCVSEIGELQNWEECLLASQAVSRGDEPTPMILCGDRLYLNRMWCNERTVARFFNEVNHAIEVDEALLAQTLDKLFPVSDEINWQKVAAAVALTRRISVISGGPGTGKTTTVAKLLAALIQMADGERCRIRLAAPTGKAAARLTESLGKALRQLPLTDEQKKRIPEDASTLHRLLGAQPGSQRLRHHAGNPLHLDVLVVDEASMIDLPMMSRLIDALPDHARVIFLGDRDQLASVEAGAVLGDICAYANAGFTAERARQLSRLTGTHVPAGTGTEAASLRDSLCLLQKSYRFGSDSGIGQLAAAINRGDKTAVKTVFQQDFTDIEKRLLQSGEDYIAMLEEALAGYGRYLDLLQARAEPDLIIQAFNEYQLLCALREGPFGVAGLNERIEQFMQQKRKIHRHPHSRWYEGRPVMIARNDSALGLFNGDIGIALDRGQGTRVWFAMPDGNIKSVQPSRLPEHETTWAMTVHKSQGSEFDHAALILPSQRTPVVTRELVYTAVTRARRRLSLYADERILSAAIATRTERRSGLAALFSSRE
Exodeoxyribonuclease V, sequence (P07648 whole entry): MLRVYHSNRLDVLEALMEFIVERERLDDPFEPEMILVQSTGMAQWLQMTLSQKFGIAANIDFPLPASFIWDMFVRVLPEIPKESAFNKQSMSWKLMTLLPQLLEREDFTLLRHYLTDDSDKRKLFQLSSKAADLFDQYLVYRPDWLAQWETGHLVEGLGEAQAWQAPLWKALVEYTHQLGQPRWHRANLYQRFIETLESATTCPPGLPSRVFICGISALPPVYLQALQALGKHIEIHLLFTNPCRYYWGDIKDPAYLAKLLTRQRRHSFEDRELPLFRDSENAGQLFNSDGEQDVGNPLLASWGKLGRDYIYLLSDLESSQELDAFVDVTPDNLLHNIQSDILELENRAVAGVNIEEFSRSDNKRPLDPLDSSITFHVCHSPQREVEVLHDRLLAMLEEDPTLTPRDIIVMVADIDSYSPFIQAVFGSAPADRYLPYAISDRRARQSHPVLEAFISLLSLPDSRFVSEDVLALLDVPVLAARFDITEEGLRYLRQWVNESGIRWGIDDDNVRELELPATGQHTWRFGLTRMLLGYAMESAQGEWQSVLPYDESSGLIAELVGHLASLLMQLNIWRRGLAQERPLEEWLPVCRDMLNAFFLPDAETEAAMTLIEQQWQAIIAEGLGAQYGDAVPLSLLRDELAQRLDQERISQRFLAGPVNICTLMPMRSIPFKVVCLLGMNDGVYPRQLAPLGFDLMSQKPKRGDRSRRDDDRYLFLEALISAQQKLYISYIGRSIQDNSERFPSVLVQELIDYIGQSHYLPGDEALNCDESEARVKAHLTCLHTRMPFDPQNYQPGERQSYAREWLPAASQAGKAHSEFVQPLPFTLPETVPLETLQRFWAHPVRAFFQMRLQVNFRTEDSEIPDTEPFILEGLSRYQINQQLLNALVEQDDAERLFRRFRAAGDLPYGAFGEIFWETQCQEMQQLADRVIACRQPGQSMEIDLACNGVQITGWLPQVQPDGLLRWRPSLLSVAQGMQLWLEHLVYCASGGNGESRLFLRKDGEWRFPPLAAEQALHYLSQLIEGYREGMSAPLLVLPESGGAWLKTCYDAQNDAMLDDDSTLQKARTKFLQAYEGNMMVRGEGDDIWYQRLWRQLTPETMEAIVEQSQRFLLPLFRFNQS
Exodeoxyribonuclease V, sequence (P08394 whole entry): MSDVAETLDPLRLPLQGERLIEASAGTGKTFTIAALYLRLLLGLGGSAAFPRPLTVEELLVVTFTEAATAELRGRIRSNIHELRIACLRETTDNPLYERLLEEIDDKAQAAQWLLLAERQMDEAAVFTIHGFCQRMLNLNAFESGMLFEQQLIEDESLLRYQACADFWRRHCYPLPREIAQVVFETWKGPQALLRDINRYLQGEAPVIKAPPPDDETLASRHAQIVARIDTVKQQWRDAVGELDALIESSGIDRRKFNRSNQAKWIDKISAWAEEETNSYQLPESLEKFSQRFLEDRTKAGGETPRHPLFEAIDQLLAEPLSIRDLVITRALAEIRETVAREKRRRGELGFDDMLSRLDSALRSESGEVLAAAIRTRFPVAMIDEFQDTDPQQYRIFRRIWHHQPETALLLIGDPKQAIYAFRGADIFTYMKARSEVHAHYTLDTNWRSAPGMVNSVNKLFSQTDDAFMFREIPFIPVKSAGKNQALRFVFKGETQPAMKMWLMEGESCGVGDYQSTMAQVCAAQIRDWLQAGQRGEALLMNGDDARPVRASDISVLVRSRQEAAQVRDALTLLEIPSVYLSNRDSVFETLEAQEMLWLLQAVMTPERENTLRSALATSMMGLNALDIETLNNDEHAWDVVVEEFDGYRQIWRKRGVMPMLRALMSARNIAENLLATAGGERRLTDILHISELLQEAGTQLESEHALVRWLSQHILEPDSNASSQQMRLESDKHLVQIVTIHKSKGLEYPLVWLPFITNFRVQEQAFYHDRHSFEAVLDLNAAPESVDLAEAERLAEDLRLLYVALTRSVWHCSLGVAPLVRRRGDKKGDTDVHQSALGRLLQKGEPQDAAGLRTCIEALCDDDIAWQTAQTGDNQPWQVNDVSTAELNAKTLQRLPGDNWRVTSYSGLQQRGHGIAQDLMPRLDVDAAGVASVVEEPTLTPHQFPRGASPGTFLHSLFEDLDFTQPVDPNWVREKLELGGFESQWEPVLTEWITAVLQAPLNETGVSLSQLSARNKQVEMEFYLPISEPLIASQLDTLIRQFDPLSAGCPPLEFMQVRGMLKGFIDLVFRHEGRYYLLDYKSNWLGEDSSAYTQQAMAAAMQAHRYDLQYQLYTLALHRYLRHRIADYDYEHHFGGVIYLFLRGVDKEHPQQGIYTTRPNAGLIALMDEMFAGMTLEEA

[14] = Vero E6 cell cytotoxicity, dose response, cytotoxicity control for non-replicating M. tuberculosis project, secondary assay (AID 492998); assay type: functional, VeroE6; settings: Vero C1008
[15] = cytotoxicity in HEK-293T cells, dose response, cytotoxicity control for TCR NF-kB inhibitor project, luminescence, T-cell screen hits (AID 489026); assay type: functional, cell-based;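 note: cells exposed to compound about 14 hours before the viability readout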
[16] = Counterscreen for AddAB inhibitors: absorbance-based bacterial cell-based high throughput dose response assay for inhibitors of bacterial viability. [Related pubchem assays (depositor defined):AID435030, AID449728, AID449731, AID488942, AID488955, AID488956]; assay type: functional
Streptococcus = assay: Group A Streptococcus viability loss, dose response, counter-screen for streptokinase expression inhibitor project, luminescence, BacTiterGlo (AID 1915); assay type: functional, organism-based;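 note: potency for reduction of bacterial viability or growth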
INS1 = assay: beta cell apoptosis inhibitors, cytokine rescue, dose response, luminescence, retest (AID 449756); assay type: functional, cell-based; settings: Rattus norvegicus;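 note: cell death triggered by IL-1 beta plus TNF-alpha plus IFN-gamma mixture; protective hits raise ATP signal compared with cytokine alone wells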

COC(=O)Cn1c2ccc(F)cc2c2nc(C)sc21
EC50 (Hexokinase HKDC1): 8.74 µM (active) | EC50 (Hexokinase-1): 8.1 µM (active)

CN(CCO)c1ccc(C=NNc2ccc([N+](=O)[O-])cc2S(=O)(=O)Nc2ccccc2C(=O)O)cc1
EC50 [1]: 17.5 µM (active) | IC50 [2]: > 100 µM (inactive) | EC50 [3]: 19.7 µM (active) | IC50 (Prothrombin): 36.4 µM (active) | IC50 [4]: 37 µM (active) | EC50 [5]: 26.6 µM (active)

CCC1(c2ccc(F)cc2)NC(=O)N(CC(=O)c2cc(C)n(C3CC3)c2C)C1=O (stereo not drawn)
EC50 [6]: 4.88 µM (active) | EC50 [7]: 5.96 µM (active)

O=C(N/N=C/c1c(O)ccc2ccccc12)c1ccc(Br)o1
EC50 (cells [8]): > 350 µM (not active) | AC50 (HEK293): 6.22 µM (active) | EC50 (cells [9]): 37.3 µM (active) | EC50 [10]: 982 nM (active) | CC50 [11]: 493 nM (active) | IC50 [12]: 9.35 µM (active) | CC50 [13]: 5.73 µM (active) | IC50 (Exodeoxyribonuclease V): > 119 µM (inactive) | CC50 [14]: 2.71 µM (active) | IC50 [15]: > 80 µM (inactive) | IC50 [16]: > 119 µM (inactive) | EC50 (Streptococcus): 2.83 µM (active) | AC50 (INS1): 779 nM (active)
